# Patent US6242462A, “Pharmacological agents” (Eli Lilly and Company, priority 2000, dated 2001)
# What was measured:
# human GluR4 [1] = molecular target: T1, human GluR4 (Homo sapiens, UniProt P48058); assay: Binding: displacement of 3H AMPA on GluR4-expressing cells (Table 1)
# T1 construct: expressed in transfected cells; host or cells: HEK293
# Description: (§1) The selectivity of compounds acting at GluR5 receptors may be determined by measurement of activity at other AMPA and kainate receptors including receptor-ligand binding studies and whole-cell voltage clamp electro-physiological recordings of functional activity at human GluR1, GluR2, GluR3 and GluR4 receptors (Fletcher et al., 1995, Recept. Channels 3; 21-31), receptor-ligand binding studies and whole-cell voltage clamp electrophysiological recordings of functional activity at human GluR6 receptors (Hoo et al., Recept. Channels 2; 327-338) and whole-cell voltage clamp electrophysiological recordings of functional activity at AMPA receptors in acutely isolated cerebellar Purkinje neurons (Bleakman et al., 1996, Mol. Pharmacol. 49; 581-585) and other tissues expressing AMPA receptors (Fletcher and Lodge, 1996, Phannacol. Ther. 70; 65-89).
# (§2) Cell lines (HEK293 cells) stably transfected with human GluR5 receptors were employed. Displacement of 3H AMPA by increasing concentrations of test compound was used on GluR1-4-expressing cells and 3H kainate (KA) on GluR5 and expressing cells. Estimated activity (Ki) in nM was as follows.
# human GluR1 [2] = molecular target: T2, human GluR1 (Homo sapiens, UniProt P42261); assay: Binding: displacement of 3H AMPA on GluR1-expressing cells (Table 1)
# T2 construct: expressed in transfected cells; host or cells: HEK293
# Description: as §1, §2
# human GluR5 [3] = molecular target: T3, human GluR5 (Homo sapiens, UniProt P39086); assay: Selectivity at GluR5 over other ionotropic glutamate receptors (binding and electrophysiology); conditions: GluR5 vs other ionotropic glutamate receptors
# Target sequence in this assay (P39086 31-918): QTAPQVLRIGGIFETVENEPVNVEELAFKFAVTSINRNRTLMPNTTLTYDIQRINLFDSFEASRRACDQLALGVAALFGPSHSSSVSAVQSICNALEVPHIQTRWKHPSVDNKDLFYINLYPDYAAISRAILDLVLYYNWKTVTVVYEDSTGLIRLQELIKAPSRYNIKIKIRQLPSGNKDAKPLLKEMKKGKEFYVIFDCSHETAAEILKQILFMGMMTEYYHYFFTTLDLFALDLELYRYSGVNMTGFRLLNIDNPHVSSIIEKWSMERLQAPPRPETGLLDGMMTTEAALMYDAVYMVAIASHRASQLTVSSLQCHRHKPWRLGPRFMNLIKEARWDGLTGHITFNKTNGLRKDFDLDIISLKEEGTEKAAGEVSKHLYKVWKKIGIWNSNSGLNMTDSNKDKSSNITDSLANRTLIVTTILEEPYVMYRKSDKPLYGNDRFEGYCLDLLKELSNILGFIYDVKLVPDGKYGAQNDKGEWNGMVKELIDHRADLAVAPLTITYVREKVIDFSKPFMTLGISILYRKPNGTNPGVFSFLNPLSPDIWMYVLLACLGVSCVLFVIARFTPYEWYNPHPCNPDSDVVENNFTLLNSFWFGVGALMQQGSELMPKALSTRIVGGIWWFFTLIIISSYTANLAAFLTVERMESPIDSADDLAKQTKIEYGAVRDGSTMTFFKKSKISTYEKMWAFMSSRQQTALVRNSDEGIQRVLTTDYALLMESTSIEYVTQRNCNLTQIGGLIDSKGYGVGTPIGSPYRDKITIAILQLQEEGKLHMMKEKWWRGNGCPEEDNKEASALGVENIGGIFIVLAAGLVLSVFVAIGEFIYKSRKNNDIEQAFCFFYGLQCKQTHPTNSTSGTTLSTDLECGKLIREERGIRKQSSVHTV
# [4] = system: acutely isolated dorsal root ganglion neurons (DRG); assay: Patch-clamp electrophysiology, kainate induced current in acutely isolated dorsal root ganglion neurons (Table 2); assay type: cell-based; conditions: Rattus norvegicus, DRG neuron, based on % inhibition of 30 μM kainate induced current
# Description: (§3) GluR5 receptor antagonists may be identified by radiolabelled ligand binding studies at the cloned and expressed human GluR5 receptor (Korczak et al., 1994, Recept. Channels 3; 41-49), by whole cell voltage clamp electro-physiological recordings of functional activity at the human GluR5 receptor (Korczak et al., 1994, Recept. Channels 3; 41-49) and by whole cell voltage clamp electro-physiological recordings of currents in acutely isolated rat dorsal root ganglion neurons (Bleakman et al., 1996, Mol. Pharmacol. 49; 581-585).
# (§4) Functional studies were carried out on HEK293 cells stably transfected with human GluR receptors and on acutely isolated dorsal root ganglion neurons (DRG) using patch-clamp technology (Bleakman et al., 1996, Mol. Pharmacol., 49, 581-585). IC50 values (μM) for test Compound A were estimated for GluR1-4 vs 100 μM AMPA and GluR5 and GluR6 vs 100 μM KA with the following results:
# *Based on % inhibition of 30 μM kainate induced current.
# human GluR5 [5] = molecular target: T3, human GluR5; assay: Binding: displacement of 3H kainate on GluR5-expressing HEK293 cells (Table 1); design: expressed in transfected cells; host or cells: HEK293
# Description: (§5) Cell lines (HEK293 cells) stably transfected with human GluR5 receptors were employed. Displacement of 3H AMPA by increasing concentrations of test compound was used on GluR1-4-expressing cells and 3H kainate (KA) on GluR5 and expressing cells.
# Target sequence in this assay (P39086 31-905 isoform P39086-2 limits assumed): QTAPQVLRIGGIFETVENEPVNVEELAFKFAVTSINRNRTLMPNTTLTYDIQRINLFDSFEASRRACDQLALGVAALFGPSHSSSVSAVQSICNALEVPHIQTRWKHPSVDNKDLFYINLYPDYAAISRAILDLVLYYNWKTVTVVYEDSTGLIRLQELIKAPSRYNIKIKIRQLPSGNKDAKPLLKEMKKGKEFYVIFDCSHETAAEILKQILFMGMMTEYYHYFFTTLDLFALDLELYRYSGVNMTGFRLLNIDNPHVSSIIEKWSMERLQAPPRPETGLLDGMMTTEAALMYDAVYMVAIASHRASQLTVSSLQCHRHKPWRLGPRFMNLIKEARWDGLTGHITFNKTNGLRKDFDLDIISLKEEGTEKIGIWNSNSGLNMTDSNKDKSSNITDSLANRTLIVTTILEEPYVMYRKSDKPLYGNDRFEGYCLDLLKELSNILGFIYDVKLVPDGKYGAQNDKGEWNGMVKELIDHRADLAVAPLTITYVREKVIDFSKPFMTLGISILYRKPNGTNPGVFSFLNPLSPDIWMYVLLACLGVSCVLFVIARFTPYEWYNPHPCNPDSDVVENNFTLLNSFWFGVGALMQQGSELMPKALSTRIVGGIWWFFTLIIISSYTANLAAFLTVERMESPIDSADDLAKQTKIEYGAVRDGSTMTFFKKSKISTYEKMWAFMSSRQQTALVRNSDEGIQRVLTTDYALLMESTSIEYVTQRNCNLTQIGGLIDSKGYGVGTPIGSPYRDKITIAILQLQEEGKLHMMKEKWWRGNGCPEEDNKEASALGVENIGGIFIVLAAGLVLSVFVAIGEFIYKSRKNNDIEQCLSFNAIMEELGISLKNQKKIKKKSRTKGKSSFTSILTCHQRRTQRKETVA
# human GluR4 [6] = molecular target: T1, human GluR4; assay: Patch-clamp electrophysiology, HEK293 cells stably transfected with human GluR4, vs 100 μM AMPA (Table 2); assay type: cell-based
# Description: as §1
# as §4, with “results: […]” for “results:”
# human GluR3 [7] = molecular target: T4, human GluR3 (Homo sapiens, UniProt P42263); assay: Binding: displacement of 3H AMPA on GluR3-expressing cells (Table 1)
# T4 construct: expressed in transfected cells; host or cells: HEK293
# Description: as §1, §2
# human GluR2 [8] = molecular target: T5, human GluR2 (Homo sapiens, UniProt P42262); assay: Patch-clamp electrophysiology, HEK293 cells stably transfected with human GluR2, vs 100 μM AMPA (Table 2); assay type: cell-based
# T5 construct: expressed in transfected cells; host or cells: HEK293
# Description: as §1
# as §4, with “results: […]” for “results:”
# human GluR6 [9] = molecular target: T6, human GluR6 (Homo sapiens, UniProt Q13002); assay: Binding: displacement of radioligand (3H kainate) on GluR6 (Table 1); conditions: read-out: % displ, GluR6
# T6 construct: expressed in transfected cells; host or cells: HEK293
# Description: as §1, §2
# human GluR3 [10] = molecular target: T4, human GluR3; assay: Patch-clamp electrophysiology, HEK293 cells stably transfected with human GluR3, vs 100 μM AMPA (Table 2); assay type: cell-based
# Description: as §1
# as §4, with “results: […]” for “results:”
# human GluR5 [11] = molecular target: T3, human GluR5; assay: Patch-clamp electrophysiology, HEK293 cells stably transfected with human GluR5, vs 100 μM KA (Table 2); assay type: cell-based; design: expressed in transfected cells; host or cells: HEK293
# Description: as §3
# as §4, with “results: […]” for “results:”
# Target sequence in this assay (P39086 31-905 isoform P39086-2 limits assumed): as above
# human GluR6 [12] = molecular target: T6, human GluR6; assay: Patch-clamp electrophysiology, HEK293 cells stably transfected with human GluR6, vs 100 μM KA (Table 2); assay type: cell-based
# Description: as §1
# as §4, with “results: […]” for “results:”
# human GluR2 [13] = molecular target: T5, human GluR2; assay: Binding: displacement of 3H AMPA on GluR2-expressing cells (Table 1)
# Description: as §5
# human GluR1 [14] = molecular target: T2, human GluR1; assay: Patch-clamp electrophysiology, HEK293 cells stably transfected with human GluR1, vs 100 μM AMPA (Table 2); assay type: cell-based
# Description: as §1
# as §4, with “results: […]” for “results:”
# tail flick response [15] = assay: Tail Flick Test in mice; assay type: in vivo; conditions: subcutaneous, 3, 10, and 30 mg/kg
# Procedure: (§6) This well known test measures the effect of a test compound on the time taken for an animal to flick its tail out of a focused beam of light. In the test, a beam of light from a lamp is focused on a surface, and the lamp is then switched off. Treated and untreated (control) animals are restrained, with their tails positioned at the focal point of the beam of light from the lamp. The lamp is then switched on, and the time taken for the animal's tail to respond by moving is recorded.
# pain = assay: Animal models of pain; conditions: in vivo
# tail flick response [16] = assay: Tail Flick Test in cynomolgous primates; assay type: in vivo; conditions: oral, 0.03, 0.1, 0.3 and 3 mg/kg
# Procedure: as §6
# [17] = system: acetic acid induced writhing; assay: Acetic acid induced mouse writhing test; assay type: in vivo, male CD-1 mice; conditions: mice; 1, 3, 10 and 30 mg/kg; 0.5% acetic acid i.p.
# Procedure: 3) Acetic acid induced mouse writhing test.
# This test measures the ability of a test compound to reduce the amount of writhing induced by intraperitoneal injection of acetic acid in mice.
# Doses of test compound or control are administered to male CD-1 mice. Each animal is then administered 0.5% acetic acid in a volume of […] intraperitoneally. The animals are then placed in individual plexiglas observation chambers and the total number of writhes (flattening of the abdominal wall and asymmetric stretching and extending of the body and hindlimbs) recorded between 5 and 10 minutes after acetic acid administration.
# T1 sequence (P48058 21-902): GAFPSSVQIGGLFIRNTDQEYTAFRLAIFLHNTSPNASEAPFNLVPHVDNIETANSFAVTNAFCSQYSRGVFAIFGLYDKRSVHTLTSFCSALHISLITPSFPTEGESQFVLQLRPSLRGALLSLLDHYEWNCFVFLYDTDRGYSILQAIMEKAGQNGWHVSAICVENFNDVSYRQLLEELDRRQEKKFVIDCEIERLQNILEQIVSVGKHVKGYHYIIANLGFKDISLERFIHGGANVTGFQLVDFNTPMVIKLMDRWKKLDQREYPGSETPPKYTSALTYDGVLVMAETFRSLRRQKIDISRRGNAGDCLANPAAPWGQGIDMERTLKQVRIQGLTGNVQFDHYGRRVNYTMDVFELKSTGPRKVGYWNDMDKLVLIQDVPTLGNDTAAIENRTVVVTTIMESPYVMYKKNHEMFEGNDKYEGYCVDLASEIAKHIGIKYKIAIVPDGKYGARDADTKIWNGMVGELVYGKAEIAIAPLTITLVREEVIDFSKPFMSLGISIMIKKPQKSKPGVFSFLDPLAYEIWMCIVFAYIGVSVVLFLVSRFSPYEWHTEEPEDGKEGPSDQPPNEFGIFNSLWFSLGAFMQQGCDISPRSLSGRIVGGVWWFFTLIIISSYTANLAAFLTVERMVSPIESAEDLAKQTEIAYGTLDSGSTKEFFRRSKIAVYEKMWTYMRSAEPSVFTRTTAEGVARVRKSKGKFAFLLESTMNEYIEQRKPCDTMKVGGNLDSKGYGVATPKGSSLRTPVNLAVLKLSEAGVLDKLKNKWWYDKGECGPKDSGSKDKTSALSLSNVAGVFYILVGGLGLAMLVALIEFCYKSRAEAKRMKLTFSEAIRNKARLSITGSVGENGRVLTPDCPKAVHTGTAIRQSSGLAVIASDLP
# T2 sequence (P42261 19-906): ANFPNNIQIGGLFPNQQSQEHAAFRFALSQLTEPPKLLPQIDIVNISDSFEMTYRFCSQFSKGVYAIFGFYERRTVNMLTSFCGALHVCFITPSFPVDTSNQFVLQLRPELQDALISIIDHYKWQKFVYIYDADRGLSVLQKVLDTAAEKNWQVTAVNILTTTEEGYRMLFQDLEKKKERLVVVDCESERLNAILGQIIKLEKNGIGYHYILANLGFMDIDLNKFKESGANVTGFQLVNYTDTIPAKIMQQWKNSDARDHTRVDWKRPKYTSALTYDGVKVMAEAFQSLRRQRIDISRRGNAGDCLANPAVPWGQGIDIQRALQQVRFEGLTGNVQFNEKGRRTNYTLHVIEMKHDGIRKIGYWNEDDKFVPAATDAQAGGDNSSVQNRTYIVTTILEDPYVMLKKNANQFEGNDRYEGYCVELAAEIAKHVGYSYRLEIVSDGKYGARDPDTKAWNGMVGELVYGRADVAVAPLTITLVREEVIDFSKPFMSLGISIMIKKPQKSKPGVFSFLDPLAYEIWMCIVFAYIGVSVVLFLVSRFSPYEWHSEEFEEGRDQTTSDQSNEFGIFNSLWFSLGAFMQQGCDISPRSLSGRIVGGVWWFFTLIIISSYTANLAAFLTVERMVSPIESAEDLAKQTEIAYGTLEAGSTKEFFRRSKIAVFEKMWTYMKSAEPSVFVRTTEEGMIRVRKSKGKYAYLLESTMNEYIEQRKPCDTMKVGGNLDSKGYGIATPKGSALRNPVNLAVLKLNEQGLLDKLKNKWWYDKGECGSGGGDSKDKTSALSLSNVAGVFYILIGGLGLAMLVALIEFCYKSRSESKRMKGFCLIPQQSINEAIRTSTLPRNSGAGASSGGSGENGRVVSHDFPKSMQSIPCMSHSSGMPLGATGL
# T6 sequence (Q13002 32-908): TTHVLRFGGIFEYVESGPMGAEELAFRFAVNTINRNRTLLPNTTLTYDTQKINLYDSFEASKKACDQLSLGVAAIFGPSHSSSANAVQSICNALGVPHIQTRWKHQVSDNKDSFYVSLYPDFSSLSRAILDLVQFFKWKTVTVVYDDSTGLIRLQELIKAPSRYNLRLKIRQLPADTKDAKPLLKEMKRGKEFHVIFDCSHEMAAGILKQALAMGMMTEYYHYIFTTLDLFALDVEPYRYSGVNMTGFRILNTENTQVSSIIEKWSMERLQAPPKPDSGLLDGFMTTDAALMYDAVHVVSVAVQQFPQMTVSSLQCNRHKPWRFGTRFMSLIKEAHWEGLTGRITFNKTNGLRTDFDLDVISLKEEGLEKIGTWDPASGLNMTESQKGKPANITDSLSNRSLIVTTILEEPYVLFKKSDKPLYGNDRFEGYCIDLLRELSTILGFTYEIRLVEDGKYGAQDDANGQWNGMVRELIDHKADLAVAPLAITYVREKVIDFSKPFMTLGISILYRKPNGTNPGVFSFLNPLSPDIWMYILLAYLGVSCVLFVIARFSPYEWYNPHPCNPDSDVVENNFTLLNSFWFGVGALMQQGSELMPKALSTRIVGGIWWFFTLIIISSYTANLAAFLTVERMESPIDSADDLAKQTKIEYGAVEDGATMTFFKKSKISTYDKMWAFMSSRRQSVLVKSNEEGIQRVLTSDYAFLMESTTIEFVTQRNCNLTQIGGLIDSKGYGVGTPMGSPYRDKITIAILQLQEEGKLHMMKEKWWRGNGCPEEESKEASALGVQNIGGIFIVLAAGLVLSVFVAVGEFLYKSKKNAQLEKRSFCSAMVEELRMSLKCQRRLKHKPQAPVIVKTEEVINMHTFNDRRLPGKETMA
compound,measurement,setting,value
"O=C(O)c1ccc(C[C@H]2CC[C@H]3CN[C@H](C(=O)O)C[C@H]3C2)cc1 (relative stereo) [C, 3SR, 4aRS, 6SR, 8aRS-6-(((4-carboxy)phenyl)methyl)-1,2,3-4,4a,5,6,7,8,8a-decahydroisoquinoline-3-carboxylic acid]",inhibition at 1000 µM,"human GluR4 [1]; at 1 mM, 3H AMPA",23%
same,inhibition at 1000 µM,"human GluR1 [2]; at 1 mM, 3H AMPA",21%
"O=C(O)[C@@H]1C[C@H]2C[C@@H](COCc3nn[nH]n3)CC[C@H]2CN1 (relative stereo) [Compound A, 3SR, 4aRS, 6SR, 8aRS-6-[(1(2)H-tetrazol-5-yl)methoxy-methyl]decahydroisoquinoline-3-carboxylic acid]",selective GluR5 receptor antagonism,human GluR5 [3],selective GluR5 receptor antagonists
same,IC50,[4],0.6 µM
same,"Estimated activity (Ki), GluR5",human GluR5 [5],3.061 µM
same,IC50,human GluR4 [6],> 100 µM
same,"Estimated activity (Ki), GluR3",human GluR3 [7],47.793 µM
same,IC50,human GluR2 [8],> 100 µM
same,inhibition at 100 µM,human GluR6 [9],6%
same,IC50,human GluR3 [10],> 100 µM
same,"Estimated activity (Ki), GluR4",human GluR4 [1]; displacement of 3H AMPA,31.606 µM
same,IC50,human GluR5 [11],3.9 ± 0.5 µM
same,IC50,human GluR6 [12],> 100 µM
same,"Estimated activity (Ki), GluR2",human GluR2 [13],35.337 µM
same,IC50,human GluR1 [14],> 100 µM
same,"Estimated activity (Ki), GluR1",human GluR1 [2]; displacement of 3H AMPA,150.686 µM
"O=C(O)[C@@H]1C[C@H]2C[C@@H](COCc3nn[nH]n3)CC[C@H]2CN1 [B, 3S,4aR,6S,8aR-6-((((1H-Tetrazole-5-yl)methyl)oxy)methyl)-1,2,3,4,4a,5,6,7,8,8a-decahydroisoquinoline-3-carboxylic Acid]",selective GluR5 receptor antagonism,human GluR5 [3],selective GluR5 receptor antagonists
same,selective GluR5 receptor antagonism,"human GluR5 [3]; listed as (3S,4aR,6S,8aR)-6-[(1(2)H-tetrazol-5-yl)methoxymethyl]decahydroisoquinoline-3-ca",selective GluR5 antagonist
same,selective GluR5 receptor antagonism,human GluR5 [3]; listed as Example 1,selective GluR5 antagonist
same,"Estimated activity (Ki), GluR5",human GluR5 [5],5.823 µM
same,response time (tail flick),tail flick response [15],dose dependent increase in response time
same,effectiveness in animal models of pain,pain,effective in animal models of pain
same,response time (tail flick),tail flick response [16],dose dependent increase in response time
same,writhing,[17],dose dependent reduction in writhing
"O=C(O)c1ccc(C[C@H]2CC[C@H]3CN[C@H](C(=O)O)C[C@H]3C2)cc1 [D, 3S,4aR,6S,8aR-6-(((4-carboxy)phenyl)methyl)-1,2,3,4,4a,5,6,7,8,8a-decahydroisoquinoline-3-carboxylic acid]",IC50,[4],0.98 µM
same,IC50,human GluR4 [6],> 100 µM
same,IC50,human GluR6 [12],> 100 µM
